Results as given in US10154684B2, “Hair regrowth and growth promoter and use thereof” (PHARMA FOODS INTERNATIONAL CO., LTD., priority 2014, dated 2018).

Tested on: C57BL/6 (female) mice
Assay: Assessment of hair growth-promoting effect on androgen-induced telogen in C57BL/6 mice
Type: in vivo, mouse
Settings: DHT 2 mg/mL, 100 μL subcutaneously every other day, casein-containing feed, Day 14, vs no DHT
Procedure: C57BL/6 (female) mice available from Charles River Laboratories Japan, Inc. were used for the test. The animals were randomly divided into test groups so that the mean body weight was approximately equal between groups. The mice were housed three per cage at room temperature (25° C.) under a 12-hour light-dark cycle.
The mice at six weeks old purchased from the vendor were preliminarily bred for one week for acclimation to the test environment. A commercially available hair removal cream was applied to the dorsal region of the mice at an age of seven weeks old to remove the hair.
Until the start of the test, the mice were fed with free access to a solid CRF-1 feed (Oriental Yeast Co., Ltd.) and tap water as drinking water.
The hair of the 7-week-old C57BL/6 mice was in the telogen phase of the hair cycle, but due to the stimulation of hair removal, the hair gradually entered into the anagen phase. This transition in the hair cycle was hampered by administration of an androgen after the hair removal. […] From two days after the hair removal, the mixed feeds indicated in Table 5 were given with free access thereto.
On the final observation day (Day 14 of administration), the mice in the test and control groups were anesthetized and fixed on a photography table, and the hair removal region was photographed.

C[C@]12CCC(=O)C[C@@H]1CC[C@@H]1[C@@H]2CC[C@]2(C)[C@@H](O)CC[C@@H]12 [DHT, dihydrotestosterone]
Blackening of the dorsal skin after hair removal: inhibited
